Data set [1] has as its target T1, Factor VIIa/tissue factor (Homo sapiens, UniProt P08709).
T1 construct: Single-chain factor VII may be converted to two-chain factor VIIa
The experiment in a line: FVIIa/tissue factor activity measured with S2288 in presence and absence of Zn and chelator. It counts as biochemical. The conditions noted are these: 10 nM FVIIa, 50 nM tissue factor. The method, then: The activity of 10 nM FVIIa and 50 nM tissue factor in the presence and absence of Zn and chelator was measured with S2288 as described in Example 4

Data set [2] deals with factor VIIa-tissue factor complex. The experiment in a line: Effect of zinc and calcium ions on the activity of the factor VIIa-tissue factor complex (FIG. 1B). The settings on record: presence of tissue factor (FIG. 1B). It counts as biochemical. An excerpt:
(§1) An effect of Ca^2+ ions is not easily contemplated in this model since the binding site for Ca^2+ in the serine protease domain is not nearby. […] Since histidines are prominant in zinc coordination we further propose that one or more of the residues of His 211, His 216 and His 256 are involved in the binding of Zn^2+ ions to factor VIIa.

The next data set concerns factor VIIa. The experiment in a line: Effect of zinc and calcium ions on the activity of factor VIIa (FIG. 1A). The conditions noted are these: absence of tissue factor (FIG. 1A). In kind it is biochemical.
Text: as §1

For data set [3] the following is noted: blood; cited from earlier work.

T1 sequence (P08709 213-466 limits assumed): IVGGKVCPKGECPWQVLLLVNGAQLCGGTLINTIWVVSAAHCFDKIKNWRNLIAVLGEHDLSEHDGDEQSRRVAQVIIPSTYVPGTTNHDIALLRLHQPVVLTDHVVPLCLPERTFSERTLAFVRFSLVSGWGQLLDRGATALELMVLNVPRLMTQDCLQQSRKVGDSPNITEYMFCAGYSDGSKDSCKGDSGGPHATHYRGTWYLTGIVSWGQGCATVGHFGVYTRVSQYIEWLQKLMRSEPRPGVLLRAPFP
T1 sequence (P08709 61-212 partner limits assumed): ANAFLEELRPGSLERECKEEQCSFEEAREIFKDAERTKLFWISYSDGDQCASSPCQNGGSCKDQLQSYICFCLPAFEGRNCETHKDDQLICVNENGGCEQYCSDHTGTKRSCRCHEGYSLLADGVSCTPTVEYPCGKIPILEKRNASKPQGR
T1 sequence (P13726 33-295 partner): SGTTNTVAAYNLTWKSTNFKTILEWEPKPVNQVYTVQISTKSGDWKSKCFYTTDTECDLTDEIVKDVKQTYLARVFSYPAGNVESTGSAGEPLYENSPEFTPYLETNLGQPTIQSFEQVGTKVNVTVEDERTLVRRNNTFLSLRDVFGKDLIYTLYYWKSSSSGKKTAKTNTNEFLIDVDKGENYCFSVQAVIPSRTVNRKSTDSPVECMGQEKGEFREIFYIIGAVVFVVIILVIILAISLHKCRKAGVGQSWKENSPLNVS

Regarding `O=C(NO)c1cc(C(=O)NO)[nH]n1` [NNC (28)], the activity at 50 µM in data set [1] (100 μM ZnCl2, 50 μM compound) is 55%; in data set [1] (No ZnCl2, 50 μM compound), 98%.

As to `[Zn+2]` [Zn^2+], the “inhibitory effect of Zn2+ on factor VIIa activity in presence of Ca2+” value (in data set [2]; with factor VIIa) was “partly abolished by Ca^2+ ions in a competitive manner” each time. Regarding heparin, in data set [3], the half-life entry was “approximately 80 minutes”.

The record behind these values is patent US5859010A, “Factor VII -binding reagent” (Novo Nordisk A/S, priority 1996, dated 1999).
